Measured values as given in PMC8113468, “Sugar transporters enable a leaf beetle to accumulate plant defense compounds” (Nature Communications, 2021).

Assays:
Type in all cases: cell-based
PaGTR1 = target: T1, PaGTR1 (Phyllotreta armoraciae, UniProt A0A858Z6R5); assay: uptake into PaGTR1-expressing Xenopus oocytes, LC-MS/MS; settings: Kulori buffer with MES pH 6.0, 10 min, room temperature; proton-dependent import; read-out: apparent Km
T1 construct: gene GTR1; full-length ORF without stop codon in pNB1u, C-terminal HA tag, cRNA expressed in Xenopus laevis oocytes
T1 sequence (A0A858Z6R5 entry or part of it): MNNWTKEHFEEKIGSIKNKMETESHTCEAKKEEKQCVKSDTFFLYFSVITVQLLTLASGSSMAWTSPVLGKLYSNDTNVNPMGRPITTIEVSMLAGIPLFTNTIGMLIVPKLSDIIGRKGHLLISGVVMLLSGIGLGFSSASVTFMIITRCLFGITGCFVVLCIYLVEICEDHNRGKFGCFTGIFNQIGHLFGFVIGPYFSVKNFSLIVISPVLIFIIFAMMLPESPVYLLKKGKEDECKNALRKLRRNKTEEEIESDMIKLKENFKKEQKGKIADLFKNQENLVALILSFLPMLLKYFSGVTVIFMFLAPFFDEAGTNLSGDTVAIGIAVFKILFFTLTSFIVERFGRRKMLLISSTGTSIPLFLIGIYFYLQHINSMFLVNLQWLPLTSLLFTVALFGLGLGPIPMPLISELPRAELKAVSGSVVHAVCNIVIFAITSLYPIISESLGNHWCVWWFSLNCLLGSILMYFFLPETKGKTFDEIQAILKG

PaGTR3 = target: T2, PaGTR3 (Phyllotreta armoraciae, UniProt A0A858Z6Y2); assay: uptake into transfected High Five insect cells, LC-MS/MS; settings: equimolar mixture of seven glucosinolates, 200 µM, PBS pH 5.5, 1 h, 27 °C
T2 construct: gene GTR3; full-length ORF in pIEx-4, C-terminal 6xHis tag, expressed in High Five insect cells
T2 sequence (A0A858Z6Y2 1-478): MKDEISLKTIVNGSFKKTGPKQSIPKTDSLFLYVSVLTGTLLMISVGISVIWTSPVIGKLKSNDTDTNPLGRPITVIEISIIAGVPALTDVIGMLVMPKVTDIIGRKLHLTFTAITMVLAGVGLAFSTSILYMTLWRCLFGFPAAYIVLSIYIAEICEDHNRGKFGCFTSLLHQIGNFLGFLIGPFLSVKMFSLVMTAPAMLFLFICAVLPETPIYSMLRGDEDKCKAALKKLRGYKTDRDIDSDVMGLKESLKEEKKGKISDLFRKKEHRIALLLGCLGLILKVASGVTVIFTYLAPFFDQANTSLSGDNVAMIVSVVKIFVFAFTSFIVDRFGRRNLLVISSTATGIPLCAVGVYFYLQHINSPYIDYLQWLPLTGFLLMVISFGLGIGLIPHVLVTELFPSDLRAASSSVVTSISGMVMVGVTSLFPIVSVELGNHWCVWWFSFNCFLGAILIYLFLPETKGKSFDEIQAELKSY

PaGTR2 = target: T3, PaGTR2 (Phyllotreta armoraciae, UniProt A0A858Z6M7); assay: as above; settings: equimolar mixture of seven glucosinolates, 200 µM, PBS pH 5.5, 1 h, 27 °C
T3 construct: gene GTR2; full-length ORF in pIEx-4, C-terminal 6xHis tag, expressed in High Five insect cells
T3 sequence (A0A858Z6M7 1-504): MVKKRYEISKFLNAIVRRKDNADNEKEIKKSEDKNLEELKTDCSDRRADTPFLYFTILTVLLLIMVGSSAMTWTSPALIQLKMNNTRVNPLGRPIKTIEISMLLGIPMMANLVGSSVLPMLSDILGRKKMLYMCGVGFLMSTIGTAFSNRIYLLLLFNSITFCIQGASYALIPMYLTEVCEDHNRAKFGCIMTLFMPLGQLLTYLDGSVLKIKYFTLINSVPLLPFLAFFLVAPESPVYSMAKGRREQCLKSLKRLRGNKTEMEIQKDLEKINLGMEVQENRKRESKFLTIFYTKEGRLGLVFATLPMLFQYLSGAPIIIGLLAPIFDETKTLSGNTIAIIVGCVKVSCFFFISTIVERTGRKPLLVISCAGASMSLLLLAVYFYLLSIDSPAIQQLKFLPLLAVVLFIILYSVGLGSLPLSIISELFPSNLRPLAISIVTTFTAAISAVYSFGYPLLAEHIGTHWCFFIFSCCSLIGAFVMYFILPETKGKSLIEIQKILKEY

Km (PaGTR1): 50.6 ± 4.1 µM
SMILES: O=S(=O)(O)O/N=C(/Cc1c[nH]c2ccccc12)S[C@@H]1O[C@H](CO)[C@@H](O)[C@H](O)[C@H]1O [I3M glucosinolate]
uptake into transfected High Five insect cells, LC-MS/MS (PaGTR3): PaGTR2 and PaGTR3 expression was analyzed because the recombinant transporters also used I3M glucosinolate
uptake into transfected High Five insect cells, LC-MS/MS (PaGTR2): PaGTR2 and PaGTR3 expression was analyzed because the recombinant transporters also used I3M glucosinolate
